According to ChEMBL document CHEMBL1201862, “PubChem BioAssay data set” (2004):
Active and inactive are the calls of the source.

Experiments:
[1] = target: T1, Leucine aminopeptidase (Plasmodium falciparum 3D7, UniProt Q8IL11); assay: P. falciparum M17LAP inhibitors, primary screen, biochemical, fluorogenic H-Leu-NHMec substrate, 1536-well (AID 1619); assay type: functional
T1 sequence (Q8IL11 whole entry): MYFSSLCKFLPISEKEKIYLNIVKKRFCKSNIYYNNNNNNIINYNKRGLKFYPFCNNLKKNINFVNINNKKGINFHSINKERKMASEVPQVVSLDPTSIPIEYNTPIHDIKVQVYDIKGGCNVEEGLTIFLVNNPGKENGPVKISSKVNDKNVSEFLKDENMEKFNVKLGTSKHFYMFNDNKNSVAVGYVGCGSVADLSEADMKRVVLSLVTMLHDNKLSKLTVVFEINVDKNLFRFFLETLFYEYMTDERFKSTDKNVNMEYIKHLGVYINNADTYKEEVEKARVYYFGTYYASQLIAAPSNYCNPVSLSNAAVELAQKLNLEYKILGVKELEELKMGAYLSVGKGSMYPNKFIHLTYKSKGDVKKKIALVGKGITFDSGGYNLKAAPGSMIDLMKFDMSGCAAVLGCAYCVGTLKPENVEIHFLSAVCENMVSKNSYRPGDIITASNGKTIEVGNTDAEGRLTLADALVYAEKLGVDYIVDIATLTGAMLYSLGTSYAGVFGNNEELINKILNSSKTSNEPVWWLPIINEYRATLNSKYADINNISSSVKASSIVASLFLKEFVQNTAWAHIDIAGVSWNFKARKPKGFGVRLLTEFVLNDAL

[2] = system: Streptococcus sp. 'group A'; assay: Streptococcus pyogenes SK(-)GAS viability under kanamycin – luminescence, BacTiterGlo, confirmation, counter-screen for streptokinase expression inhibitor project, dose response (AID 1900); assay type: functional, organism-based
[3] = A cytotoxicity screen of small molecule inhibitors of the PhoP region in Salmonella typhi identified in the primary screen. [Related pubchem assays: 1850, 1864, 1985 ]; assay type: functional
[4] = target: T2, Streptokinase A (Streptococcus pyogenes serotype M1, UniProt P10520); assay: viability-normalized secreted streptokinase activity reduction – plasminogen activation absorbance, OD405, dose response (AID 1914); assay type: functional, Streptococcus pyogenes M1 GAS;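 note: secreted streptokinase activity via plasminogen activation per viability signal from cell pellet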
T2 sequence (P10520 whole entry): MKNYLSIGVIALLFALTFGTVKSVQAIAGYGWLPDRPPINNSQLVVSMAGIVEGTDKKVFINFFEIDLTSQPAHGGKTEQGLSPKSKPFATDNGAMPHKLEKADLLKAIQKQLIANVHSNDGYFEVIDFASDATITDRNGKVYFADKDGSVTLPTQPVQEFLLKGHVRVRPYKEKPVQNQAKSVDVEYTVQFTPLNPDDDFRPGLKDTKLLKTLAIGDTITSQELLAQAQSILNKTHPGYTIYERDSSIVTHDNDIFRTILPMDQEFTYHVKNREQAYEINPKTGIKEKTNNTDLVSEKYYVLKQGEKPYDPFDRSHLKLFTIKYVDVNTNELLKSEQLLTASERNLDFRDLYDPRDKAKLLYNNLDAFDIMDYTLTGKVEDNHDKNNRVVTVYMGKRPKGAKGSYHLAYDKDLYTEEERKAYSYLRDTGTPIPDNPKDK

[5] = system: Streptococcus; assay: GAS UMAA2166 growth inhibition – luminescence, BacTiterGlo, counter-screen for streptokinase expression inhibitor project, dose response (AID 1915); assay type: functional, organism-based;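 note: potency for reduction of bacterial viability or growth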
[6] = viability of uninfected HEp-2 cells – cell-based, HTS, cytotoxicity control for RSV inhibitor project, dose response (AID 2410); assay type: functional; conditions: human respiratory syncytial virus
[7] = cells
[8] = target: Glyceraldehyde-3-phosphate dehydrogenase (Homo sapiens, UniProt P04406)
Chain of Glyceraldehyde-3-phosphate dehydrogenase (P04406 whole entry): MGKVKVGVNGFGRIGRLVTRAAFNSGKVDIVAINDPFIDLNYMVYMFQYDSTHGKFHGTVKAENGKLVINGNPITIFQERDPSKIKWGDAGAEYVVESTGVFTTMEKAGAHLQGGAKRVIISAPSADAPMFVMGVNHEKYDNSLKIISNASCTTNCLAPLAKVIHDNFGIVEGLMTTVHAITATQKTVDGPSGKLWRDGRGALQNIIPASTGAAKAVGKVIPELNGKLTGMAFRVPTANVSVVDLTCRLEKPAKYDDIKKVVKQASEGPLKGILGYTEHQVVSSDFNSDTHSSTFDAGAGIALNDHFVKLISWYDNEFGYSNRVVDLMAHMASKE

[9] = target: T3, High affinity choline transporter 1 (Homo sapiens, UniProt Q9GZV3); assay: human choline transporter blockers, potency – cell-based, 5-point CRC, membrane potential dye, dose response (AID 504840); assay type: functional
T3 sequence (Q9GZV3 whole entry): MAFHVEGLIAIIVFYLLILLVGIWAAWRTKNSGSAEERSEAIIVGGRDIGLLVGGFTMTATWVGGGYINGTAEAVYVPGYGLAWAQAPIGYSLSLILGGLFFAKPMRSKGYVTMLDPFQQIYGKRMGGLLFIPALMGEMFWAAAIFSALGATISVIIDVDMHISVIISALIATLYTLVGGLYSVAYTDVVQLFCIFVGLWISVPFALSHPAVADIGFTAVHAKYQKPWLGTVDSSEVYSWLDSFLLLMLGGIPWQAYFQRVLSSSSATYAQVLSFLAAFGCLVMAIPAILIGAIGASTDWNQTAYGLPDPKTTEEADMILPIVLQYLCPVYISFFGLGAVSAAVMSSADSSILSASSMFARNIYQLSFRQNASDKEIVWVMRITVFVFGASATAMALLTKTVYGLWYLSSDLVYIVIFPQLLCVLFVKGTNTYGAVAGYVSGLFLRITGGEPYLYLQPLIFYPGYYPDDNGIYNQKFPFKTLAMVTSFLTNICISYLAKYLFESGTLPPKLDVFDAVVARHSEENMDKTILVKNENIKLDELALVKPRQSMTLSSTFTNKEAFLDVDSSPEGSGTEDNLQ

[10] = system: H9c2; assay: cells; assay type: functional, cell-based; conditions: Rattus norvegicus, H9c2, Myocardium;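 note: confirmatory concentration-response retest of ultra-high-throughput screening hits for modulation of myocardial damage; cell death induced by hydrogen peroxide oxidative stress; compound pretreatment for 60 min then peroxide exposure for 2 h; potency is for protecting the cells against peroxide damage rather than for killing them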
[11] = target: T4, Corticotropin-releasing factor receptor 2/Corticotropin-releasing factor-binding protein (Homo sapiens, UniProt P24387+Q13324); assay: activators of CRF receptor 2 with binding protein – uHTS hits, confirmation (AID 602473); assay type: functional; conditions: read-out: EC50_Mean
T4 sequence (Q13324 whole entry): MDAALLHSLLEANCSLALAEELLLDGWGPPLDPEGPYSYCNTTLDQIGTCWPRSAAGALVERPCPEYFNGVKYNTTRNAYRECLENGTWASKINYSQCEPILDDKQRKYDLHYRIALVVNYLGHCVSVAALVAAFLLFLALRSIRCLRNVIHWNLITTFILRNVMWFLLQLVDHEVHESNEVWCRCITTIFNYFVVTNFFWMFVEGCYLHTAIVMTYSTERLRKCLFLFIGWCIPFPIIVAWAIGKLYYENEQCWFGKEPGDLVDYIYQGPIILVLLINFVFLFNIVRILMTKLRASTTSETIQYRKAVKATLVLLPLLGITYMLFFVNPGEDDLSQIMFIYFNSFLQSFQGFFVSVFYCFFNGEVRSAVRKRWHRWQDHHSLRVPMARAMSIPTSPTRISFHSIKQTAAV
T4 sequence (P24387 whole entry): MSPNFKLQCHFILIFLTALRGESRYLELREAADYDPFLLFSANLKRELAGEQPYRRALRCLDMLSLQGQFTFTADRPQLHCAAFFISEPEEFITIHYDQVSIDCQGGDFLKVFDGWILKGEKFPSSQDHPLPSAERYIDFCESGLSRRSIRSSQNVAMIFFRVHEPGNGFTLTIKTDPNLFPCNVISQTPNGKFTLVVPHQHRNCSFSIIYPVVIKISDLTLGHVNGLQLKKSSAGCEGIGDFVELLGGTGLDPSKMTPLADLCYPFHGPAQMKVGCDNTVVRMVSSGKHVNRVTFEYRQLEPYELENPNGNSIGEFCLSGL

[12] = target: T5, Estrogen receptor (Homo sapiens, UniProt P03372);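 note: potency for inhibiting coactivator peptide recruitment to the receptor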
T5 sequence (P03372 whole entry): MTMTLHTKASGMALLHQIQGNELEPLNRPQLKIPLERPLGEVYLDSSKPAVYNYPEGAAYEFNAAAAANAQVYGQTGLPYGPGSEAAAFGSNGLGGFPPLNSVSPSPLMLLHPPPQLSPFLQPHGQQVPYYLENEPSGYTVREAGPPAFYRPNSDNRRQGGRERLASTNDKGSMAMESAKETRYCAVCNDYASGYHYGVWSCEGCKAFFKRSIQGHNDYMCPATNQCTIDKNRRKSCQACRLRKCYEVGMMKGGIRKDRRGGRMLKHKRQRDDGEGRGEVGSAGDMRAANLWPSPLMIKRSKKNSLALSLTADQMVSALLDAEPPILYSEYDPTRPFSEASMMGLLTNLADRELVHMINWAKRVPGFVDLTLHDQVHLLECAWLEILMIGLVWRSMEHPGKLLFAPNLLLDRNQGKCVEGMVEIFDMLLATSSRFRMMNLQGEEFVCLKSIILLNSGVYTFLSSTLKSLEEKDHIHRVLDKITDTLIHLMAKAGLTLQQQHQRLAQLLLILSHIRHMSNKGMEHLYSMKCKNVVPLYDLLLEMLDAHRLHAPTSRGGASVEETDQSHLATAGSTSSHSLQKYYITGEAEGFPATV

[13] = target: Large T antigen (Simian virus 40, UniProt P03070); assay type: functional, Betapolyomavirus macacae;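 note: Confirmatory-stage PubChem screen for compounds that inhibit SV40 T antigen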
Chain of Large T antigen (P03070 whole entry): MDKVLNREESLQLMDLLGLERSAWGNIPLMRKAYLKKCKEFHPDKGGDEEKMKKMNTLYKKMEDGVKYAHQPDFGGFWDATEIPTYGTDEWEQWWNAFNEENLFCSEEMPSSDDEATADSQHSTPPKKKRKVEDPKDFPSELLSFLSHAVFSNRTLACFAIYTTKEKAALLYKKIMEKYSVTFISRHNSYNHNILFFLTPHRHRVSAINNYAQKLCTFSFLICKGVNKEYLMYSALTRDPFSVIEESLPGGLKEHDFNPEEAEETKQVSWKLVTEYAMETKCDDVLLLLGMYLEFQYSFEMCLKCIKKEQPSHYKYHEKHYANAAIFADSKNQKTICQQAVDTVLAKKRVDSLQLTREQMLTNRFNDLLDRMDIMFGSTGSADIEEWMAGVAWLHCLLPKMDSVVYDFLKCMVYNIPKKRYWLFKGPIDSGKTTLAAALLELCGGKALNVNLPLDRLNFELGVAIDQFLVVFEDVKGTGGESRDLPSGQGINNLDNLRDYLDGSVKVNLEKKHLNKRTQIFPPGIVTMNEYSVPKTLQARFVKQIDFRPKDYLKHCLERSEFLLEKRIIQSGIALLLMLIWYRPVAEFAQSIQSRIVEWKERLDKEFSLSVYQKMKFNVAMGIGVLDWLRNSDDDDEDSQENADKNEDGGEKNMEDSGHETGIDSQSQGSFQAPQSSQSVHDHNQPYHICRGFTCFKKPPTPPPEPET

[14] = target: T6, Lysine-specific demethylase 4C (Homo sapiens, UniProt Q9H3R0); assay: inhibition of JMJD2C H3K9me3 demethylation – biochemical, DELFIA europium, cherry-picked samples, dose response (AID 488835); assay type: functional
T6 sequence (Q9H3R0 whole entry): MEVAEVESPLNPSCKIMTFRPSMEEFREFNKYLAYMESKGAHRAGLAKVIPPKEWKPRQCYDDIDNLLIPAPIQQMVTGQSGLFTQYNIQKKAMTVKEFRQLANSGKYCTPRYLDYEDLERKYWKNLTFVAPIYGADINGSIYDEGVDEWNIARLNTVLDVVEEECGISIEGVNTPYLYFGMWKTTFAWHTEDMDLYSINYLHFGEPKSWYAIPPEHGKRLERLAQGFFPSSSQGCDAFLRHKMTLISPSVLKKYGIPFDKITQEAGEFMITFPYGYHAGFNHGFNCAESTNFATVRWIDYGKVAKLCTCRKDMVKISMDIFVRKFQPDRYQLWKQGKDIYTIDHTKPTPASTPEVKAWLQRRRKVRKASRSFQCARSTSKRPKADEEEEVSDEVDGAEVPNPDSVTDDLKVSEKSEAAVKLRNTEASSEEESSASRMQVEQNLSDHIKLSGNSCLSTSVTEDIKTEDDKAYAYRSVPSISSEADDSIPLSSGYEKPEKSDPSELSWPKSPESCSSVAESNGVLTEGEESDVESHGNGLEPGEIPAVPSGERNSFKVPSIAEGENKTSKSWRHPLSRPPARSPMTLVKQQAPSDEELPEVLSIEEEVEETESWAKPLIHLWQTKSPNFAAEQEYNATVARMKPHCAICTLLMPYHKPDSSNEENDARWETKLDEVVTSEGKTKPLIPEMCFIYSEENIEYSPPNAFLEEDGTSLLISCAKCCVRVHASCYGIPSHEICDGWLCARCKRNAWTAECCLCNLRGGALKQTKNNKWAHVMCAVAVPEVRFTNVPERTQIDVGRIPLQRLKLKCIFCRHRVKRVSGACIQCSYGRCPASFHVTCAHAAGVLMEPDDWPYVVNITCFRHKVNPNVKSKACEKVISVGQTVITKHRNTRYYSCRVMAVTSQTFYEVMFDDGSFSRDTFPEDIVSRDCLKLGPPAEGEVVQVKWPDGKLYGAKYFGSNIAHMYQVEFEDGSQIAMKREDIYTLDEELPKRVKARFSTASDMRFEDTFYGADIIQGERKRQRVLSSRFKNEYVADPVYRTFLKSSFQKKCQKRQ

## O=C(CN1C(=O)c2ccccc2C1=O)Nc1ccc2c(c1)OCO2
[1]
  IC50: 9.43 µM (active)

## N#CC(C(=O)C12CC3CC(CC(C3)C1)C2)c1nc2ccccc2[nH]1 (centres undefined)
[2]
  EC50: 5.14 µM (active)
[3]
  EC50: > 50 µM (active)
[4]
  EC50: 66 µM (active)
[5]
  EC50: > 150 µM (not active)

## COc1cc(/C=N/NC(=O)COc2c(C)cc([N+](=O)[O-])cc2C)ccc1OC(=O)c1ccccc1
[6]
  CC50: 41.7 µM (active)
[7]
  IC50: 17.9 µM (active)

## CC(=O)Oc1ccc(-c2cccc(C(=O)NCC(=O)O)c2)cc1
[8]
  IC50: > 100 µM (not active)

## CCOc1ccc(N2C(=O)C(CC(=O)Nc3ccc(F)cc3)N(Cc3ccccn3)C2=S)cc1 (centres undefined)
[6]
  CC50: 32.9 µM (active)
[7]
  IC50: 23.9 µM (active)

## COc1ccc2[nH]cc(C(=O)CN3CCN(C4CCCCC4)CC3)c2c1
[7]
  IC50: 36.6 µM (active)

## Cc1nc(SCC(=O)Nc2ccc3c(c2)OCCO3)nc(C)c1C
[1]
  IC50: 43.5 µM (active)

## Cc1cc(CN(C)C(=O)c2cc(COc3ccc(F)cc3Cl)on2)n[nH]1
[6]
  CC50: 39.1 µM (active)
[7]
  IC50: 24.6 µM (active)
[9]
  IC50: 9.89 µM (active)

## COc1cc(/C=c2\s/c(=C(/C#N)C(=O)N3CCCC3)n(-c3ccccc3)c2=O)ccc1O
[10]
  IC50: > 79 µM (inactive)
[11]
  EC50: 8.71 µM (active)
[12]
  IC50: > 50 µM (not active)

## O=C(CN1C2=NCCCN2c2ccccc21)c1ccc2c(c1)OCO2
[3]
  EC50: > 50 µM (active)

## CCOc1ccc(NC(S)=Nc2cc(C)[nH]n2)cc1
[3]
  EC50: > 50 µM (active)

## CC(=O)c1cc2c(O)c(O)ccc2o1
[13]
  IC50: 18.5 µM (active)
[14]
  AC50: 9.2 µM (active)
[1]
  IC50: 75.4 µM (active)

## COc1cc2[nH]c(=S)n(CC3CCCO3)c(=O)c2cc1OC (centres undefined)
[3]
  EC50: > 50 µM (active)
